Reference: patent US9206156B2, “Substituted indole derivatives” (GRÜNENTHAL GMBH, priority 2008, dated 2015)

Experiments:
human μ-opiate receptor = target: T1, human μ-opiate receptor (Homo sapiens, UniProt P35372); test: μ-opiate receptor binding assay with [3H] naloxone (WGA-SPA beads); conditions: 1 μmol/l test substance, 1 nmol/l [3H] naloxone, CHO-K1 cell membranes expressing human μ-opiate receptor
T1 construct: purchased NEN, Zaventem, Belgium RB-HOM; host or cells: CHO-K1 cells (membrane preparation)
Procedure: The receptor affinity to the human μ-opiate receptor was determined in a homogeneous batch in microtitre plates. To this end, dilution series of the substituted indole derivative to be tested were incubated for 90 minutes at room temperature with a receptor membrane preparation (15-40 μg protein per 250 μl incubation batch) of CHO-K1 cells, which express the human μ-opiate receptor (RB—HOM receptor membrane preparation from NEN, Zaventem, Belgium), in the presence of 1 nmol/l of the radioactive ligand [^3H] naloxone (NET719, NEN, Zaventem, Belgium) and 1 mg of WGA-SPA beads (wheat germ agglutinin SPA beads from Amersham/Pharmacia, Freiburg, Germany) in a total volume of 250 μl. 50 mmol/l tris-HCl supplemented with 0.05 wt. % sodium azide and 0.06 wt. % bovine serum albumin were used as the incubation buffer. In order to determine the non-specific binding, 25 μmol/l of naloxone were also added. At the end of the ninety-minute incubation period the microtitre plates were centrifuged for 20 minutes at 1000 g and the radioactivity was measured in a β counter (Microbeta-Trilux, PerkinElmer Wallac, Freiburg, Germany). The percentage displacement of the radioactive ligand from its binding to the human μ-opiate receptor was determined at a test substance concentration of 1 μmol/l and stated as the percentage inhibition (% inhibition) of the specific binding. In some cases the percentage displacement due to differing concentrations of the compounds having the general formula I to be tested was used to calculate the IC50 inhibition concentrations which bring about a 50-percent displacement of the radioactive ligand. Ki values for the test substances were obtained by extrapolation using the Cheng-Prusoff equation.

ORL1 receptor = target: T2, ORL1 receptor (Homo sapiens, UniProt P41146); test: ORL1 receptor binding assay with 3H-nociceptin/orphanin FQ (WGA-SPA beads); conditions: c=1 μM test substance; 0.5 nM 3H-nociceptin/orphanin FQ; membranes of recombinant CHO-ORL1 cells
T2 construct: expressed in transfected cells; host or cells: CHO (recombinant CHO-ORL1 cells), membranes
Procedure: Measurement of ORL1 Binding
The cyclohexane derivatives having the general formula I were investigated in a receptor binding assay with ^3H-nociceptin/orphanin FQ with membranes of recombinant CHO—ORL1 cells. This test system was conducted in accordance with the method described by Ardati et al. (Mol. Pharmacol., 51, 1997, p. 816-824). The concentration of ^3H-nociceptin/orphanin FQ in these tests was 0.5 nM. The binding assays were carried out with 20 μg amounts of membrane protein per 200 μl batch in 50 mM Hepes, pH 7.4, 10 mM MgCl2 and 1 mM EDTA. The binding to the ORL1 receptor was determined using 1 mg amounts of WGA-SPA beads (Amersham-Pharmacia, Freiburg, Germany), by incubation of the batch for one hour at room temperature and subsequent measurement in a Trilux scintillation counter (Wallac, Finland). The affinity is given in Table 1 as the nanomolar Ki value or in % inhibition at c=1 μM.

T1 sequence (P35372 whole entry): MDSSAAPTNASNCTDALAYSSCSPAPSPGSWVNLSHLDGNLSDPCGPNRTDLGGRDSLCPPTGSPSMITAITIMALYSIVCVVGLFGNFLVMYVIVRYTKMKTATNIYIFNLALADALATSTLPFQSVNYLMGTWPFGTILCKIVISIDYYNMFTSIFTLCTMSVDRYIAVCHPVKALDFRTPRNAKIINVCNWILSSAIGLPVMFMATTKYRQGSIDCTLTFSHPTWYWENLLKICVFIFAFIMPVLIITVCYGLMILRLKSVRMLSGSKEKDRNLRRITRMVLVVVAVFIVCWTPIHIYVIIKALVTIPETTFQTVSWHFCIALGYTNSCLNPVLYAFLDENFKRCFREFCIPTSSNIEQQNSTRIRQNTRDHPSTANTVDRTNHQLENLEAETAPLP
T2 sequence (P41146 whole entry): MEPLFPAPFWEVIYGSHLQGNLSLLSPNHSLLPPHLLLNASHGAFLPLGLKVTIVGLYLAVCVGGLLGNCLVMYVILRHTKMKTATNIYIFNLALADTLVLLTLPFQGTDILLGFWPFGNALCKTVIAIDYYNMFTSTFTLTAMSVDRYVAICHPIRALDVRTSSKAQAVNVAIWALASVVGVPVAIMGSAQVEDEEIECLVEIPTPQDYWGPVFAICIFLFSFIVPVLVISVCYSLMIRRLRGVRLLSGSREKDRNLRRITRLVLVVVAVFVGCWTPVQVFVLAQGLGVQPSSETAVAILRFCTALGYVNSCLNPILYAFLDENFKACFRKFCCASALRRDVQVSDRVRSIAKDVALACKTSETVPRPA

Row | Compound | inhibition at 1 µM (human μ-opiate receptor) [%] | inhibition at 1 µM (ORL1 receptor) [%] | % Inhibition (μ) at 1 μM (human μ-opiate receptor) [%] | % Inhibition (ORL1) at 1 μM (ORL1 receptor) [%]
1 | CN(CCCN1CCC(c2cccs2)(N(C)C)CC1)C(=O)CCc1cn(C)c2ccccc12 [Example 13, N-(3-(4-(Dimethylamino)-4-(thiophen-2-yl)piperidin-1-yl)propyl)-N-methyl-3-(1-methyl-1H-indol-3-yl)propanamide] | 80 | 35 | – | –
2 | CN(CCN1CCC(c2ccccc2)(N(C)C)CC1)C(=O)CCc1cn(C)c2ccccc12 [Example 14, N-(2-(4-(Dimethylamino)-4-phenylpiperidin-1-yl)ethyl)-N-methyl-3-(1-methyl-1H-indol-3-yl)propanamide] | 73 | 48 | – | –
3 | CN(CCCN1CCC(c2cccs2)(N(C)C)CC1)C(=O)c1cc2cc(F)ccc2[nH]1 [Example 15, N-(3-(4-(Dimethylamino)-4-(thiophen-2-yl)piperidin-1-yl)propyl)-5-fluoro-N-methyl-1H-indole-2-carboxamide] | 88 | 58 | – | –
4 | CN(CCN1CCC(c2ccccc2)(N(C)C)CC1)C(=O)c1cc2cc(F)ccc2[nH]1 [Example 16, N-(2-(4-(Dimethylamino)-4-phenylpiperidin-1-yl)ethyl)-5-fluoro-N-methyl-1H-indole-2-carboxamide] | 94 | 89 | – | –
5 | CN(CCCN1CCC(c2cccs2)(N(C)C)CC1)C(=O)c1ccc2cc[nH]c2c1 [Example 17, N-(3-(4-(Dimethylamino)-4-(thiophen-2-yl)piperidin-1-yl)propyl)-N-methyl-1H-indole-6-carboxamide] | 70 | 38 | – | –
6 | CN(CCN1CCC(c2ccccc2)(N(C)C)CC1)C(=O)c1ccc2cc[nH]c2c1 [Example 18, N-(2-(4-(Dimethylamino)-4-phenylpiperidin-1-yl)ethyl)-N-methyl-1H-indole-6-carboxamide] | 95 | 82 | – | –
7 | CC(CC(=O)N(C)CCCN1CCC(c2cccs2)(N(C)C)CC1)c1c[nH]c2ccccc12 (centres unmarked) [Example 19, N-(3-(4-(Dimethylamino)-4-(thiophen-2-yl)piperidin-1-yl)propyl)-3-(1H-indol-3-yl)-N-methylbutanamide] | 89 | 59 | – | –
8 | CC(CC(=O)N(C)CCN1CCC(c2ccccc2)(N(C)C)CC1)c1c[nH]c2ccccc12 (centres unmarked) [Example 20, N-(2-(4-(Dimethylamino)-4-phenylpiperidin-1-yl)ethyl)-3-(1H-indol-3-yl)-N methylbutanamide] | 88 | 68 | – | –
9 | CN(CCCN1CCC(c2cccs2)(N(C)C)CC1)C(=O)CCc1c[nH]c2ccccc12 [Example 21, N-(3-(4-(Dimethylamino)-4-(thiophen-2-yl)piperidin-1-yl)propyl)-3-(1H-indol-3-yl)-N-methylpropanamide] | 87 | 62 | – | –
10 | COc1ccc2[nH]c(C(=O)N(C)CCCN3CCC(c4cccs4)(N(C)C)CC3)cc2c1 [Example 22, N-(3-(4-(Dimethylamino)-4-(thiophen-2-yl)piperidin-1-yl)propyl)-5-methoxy-N-methyl-1H-indole-2-carboxamide] | 70 | 25 | – | –
11 | CC(C)C(CC(=O)N(C)CCCN1CCC(c2cccs2)(N(C)C)CC1)c1c[nH]c2ccccc12 (centres unmarked) [Example 23, N-(3-(4-(Dimethylamino)-4-(thiophen-2-yl)piperidin-1-yl)propyl)-3-(1H-indol-3-yl)-N,4-dimethylpentanamide] | 86 | 53 | – | –
12 | CC(C)C(CC(=O)N(C)CCN1CCC(c2ccccc2)(N(C)C)CC1)c1c[nH]c2ccccc12 (centres unmarked) [Example 24, N-(2-(4-(Dimethylamino)-4-phenylpiperidin-1-yl)ethyl)-3-(1H-indol-3-yl)-N,4-dimethylpentanamide] | 97 | 84 | – | –
13 | CN(CCN1CCC(c2ccccc2)(N(C)C)CC1)C(=O)C1CCCc2c1[nH]c1ccc(Cl)cc21 (centres unmarked) [Example 25, 6-Chloro-N-(2-(4-(dimethylamino)-4-phenylpiperidin-1-yl)ethyl)-N-methyl-2,3,4,9-tetrahydro-1H-carbazole-1-carboxamide] | – | – | 86 | 62
14 | CN(CCCN1CCC(c2cccs2)(N(C)C)CC1)C(=O)Cc1c[nH]c2cc(F)ccc12 [Example 26, N-(3-(4-(Dimethylamino)-4-(thiophen-2-yl)piperidin-1-yl)propyl)-2-(6-fluoro-1H-indol-3-yl)-N-methylacetamide] | 88 | 59 | – | –
15 | CN(CCN1CCC(c2ccccc2)(N(C)C)CC1)C(=O)Cc1c[nH]c2cc(F)ccc12 [Example 27, N-(2-(4-(Dimethylamino)-4-phenylpiperidin-1-yl)ethyl)-2-(6-fluoro-1H-indol-3-yl)-N-methylacetamide] | 98 | 93 | – | –
16 | CN(CCCN1CCC(c2cccs2)(N(C)C)CC1)C(=O)c1ccc2ccn(C)c2c1 [Example 28, N-(3-(4-(Dimethylamino)-4-(thiophen-2-yl)piperidin-1-yl)propyl)-N,1-dimethyl-1H-indole-6-carboxamide] | 88 | 36 | – | –
17 | CN(CCN1CCC(c2ccccc2)(N(C)C)CC1)C(=O)c1ccc2ccn(C)c2c1 [Example 29, N-(2-(4-(Dimethylamino)-4-phenylpiperidin-1-yl)ethyl)-N,1-dimethyl-1H-indole-6-carboxamide] | – | – | 94 | 51
18 | CN(CCCN1CCC(c2cccs2)(N(C)C)CC1)C(=O)c1cccc2c1ccn2C [Example 30, N-(3-(4-(Dimethylamino)-4-(thiophen-2-yl)piperidin-1-yl)propyl)-N,1-dimethyl-1H-indole-4-carboxamide] | 78 | 21 | – | –
19 | CN(CCN1CCC(c2ccccc2)(N(C)C)CC1)C(=O)c1cccc2c1ccn2C [Example 31, N-(2-(4-(Dimethylamino)-4-phenylpiperidin-1-yl)ethyl)-N,1-dimethyl-1H-indole-4-carboxamide] | 88 | 35 | – | –
20 | CCCCC1(N(C)C)CCN(CCN(C)C(=O)CC(c2c[nH]c3ccccc23)C(C)C)CC1 (centres unmarked) [Example 33, N-(2-(4-Butyl-4-(dimethylamino)piperidin-1-yl)ethyl)-3-(1H-indol-3-yl)-N,4-dimethylpentanamide] | 94 | 27 | – | –
21 | CC(C)C(CC(=O)N(C)CCCN1CCC(c2ccccc2)(N(C)C)CC1)c1c[nH]c2ccccc12 (centres unmarked) [Example 34, N-(3-(4-(Dimethylamino)-4-phenylpiperidin-1-yl)propyl)-3-(1H-indol-3-yl)-N,4-dimethylpentanamide] | 88 | 43 | – | –
22 | CN(CCCN1CCC(c2ccccc2)(N(C)C)CC1)C(=O)C1CCCc2c1[nH]c1ccc(Cl)cc21 (centres unmarked) [Example 35, 6-Chloro-N-(3-(4-(dimethylamino)-4-phenylpiperidin-1-yl)propyl)-N-methyl-2,3,4,9-tetrahydro-1H-carbazole-1-carboxamide] | 57 | 79 | – | –
23 | CN(CCN1CCC(c2ccccc2)(N2CCCC2)CC1)C(=O)Cc1c[nH]c2cc(F)ccc12 [Example 36, 2-(6-Fluoro-1H-indol-3-yl)-N-methyl-N-(2-(4-phenyl-4-(pyrrolidin-1-yl)piperidin-1-yl)ethyl)acetamide] | 62 | 31 | – | –
24 | CN(CCN1CCC(c2ccccc2)(N2CCCC2)CC1)C(=O)c1ccc2ccn(C)c2c1 [Example 37, N,1-Dimethyl-N-(2-(4-phenyl-4-(pyrrolidin-1-yl)piperidin-1-yl)ethyl)-1H-indole-6-carboxamide] | 47 | 16 | – | –
25 | CN(CCCN1CCC(c2ccccc2)(N(C)C)CC1)C(=O)c1ccc2ccn(C)c2c1 [Example 39, N-(3-(4-(Dimethylamino)-4-phenylpiperidin-1-yl)propyl)-N,1-dimethyl-1H-indole-6-carboxamide] | 76 | 32 | – | –
